According to PubChem BioAssay AID1259407 (Chemical Carcinogenesis Research Information System (CCRIS), 2018):
Calls of active or inactive are those of the source. The rule behind the calls is not given here.

System: CCRIS mutagenicity, Ames/micronucleus/aberration tests
Experiment: CCRIS mutagenicity studies
[1] = Test System: AMES SALMONELLA TYPHIMURIUM, Strain/Indicator: TA98, Metabolic Activation: NONE, Method: STANDARD PLATE
[2] = Test System: AMES SALMONELLA TYPHIMURIUM, Strain/Indicator: TA1537, Metabolic Activation: NONE, Method: STANDARD PLATE

NC(=O)N/N=C/c1ccc([N+](=O)[O-])o1
mutagenic call (End Point: IN VITRO CHROMOSOMAL ABERRATIONS, Test System: CHO CELLS, Metabolic Activation: NONE): active; positive
mutagenic call (End Point: IN VITRO CHROMOSOMAL ABERRATIONS, Test System: CHO CELLS, Metabolic Activation: RAT, LIVER, S-9, AROCLOR 1254): active; positive; precipitation occurred at 500 ug/ml
mutagenic call (Test System: AMES SALMONELLA TYPHIMURIUM, Strain/Indicator: TA97, Metabolic Activation: NONE, Method: FLUCTUATION TEST): active; positive
mutagenic call (Test System: AMES SALMONELLA TYPHIMURIUM, Strain/Indicator: TA98(1,8-DNP6), Metabolic Activation: NONE, Method: STANDARD PLATE): active; positive
mutagenic call (Test System: AMES SALMONELLA TYPHIMURIUM, Strain/Indicator: TA98(1,8-DNP6), Metabolic Activation: RAT, LIVER, S-9, 3-METHYLCHOLANTHRENE, Method: STANDARD PLATE): active; positive
mutagenic call (Test System: AMES SALMONELLA TYPHIMURIUM, Strain/Indicator: TA98(NR), Metabolic Activation: NONE, Method: STANDARD PLATE): active; positive
mutagenic call (Test System: AMES SALMONELLA TYPHIMURIUM, Strain/Indicator: TA98(NR), Metabolic Activation: RAT, LIVER, S-9, 3-METHYLCHOLANTHRENE, Method: STANDARD PLATE): active; positive
mutagenic call (Test System: AMES SALMONELLA TYPHIMURIUM, Strain/Indicator: TA98, Metabolic Activation: HAMSTER, LIVER, S-9, AROCLOR 1254 (10%), Method: PREINCUBATION): active; positive
mutagenic call (Test System: AMES SALMONELLA TYPHIMURIUM, Strain/Indicator: TA98, Metabolic Activation: HAMSTER, LIVER, S-9, AROCLOR 1254, Method: PREINCUBATION): active; positive
mutagenic call (Test System: AMES SALMONELLA TYPHIMURIUM, Strain/Indicator: TA98, Metabolic Activation: NONE, Method: PREINCUBATION): active; positive
mutagenic call [1]: active; positive
mutagenic call (Test System: AMES SALMONELLA TYPHIMURIUM, Strain/Indicator: TA98, Metabolic Activation: RAT LIVER S-9, AROCLOR 1254, Method: STANDARD PLATE): active; positive
mutagenic call (Test System: AMES SALMONELLA TYPHIMURIUM, Strain/Indicator: TA98, Metabolic Activation: RAT, LIVER, S-9, 3-METHYLCHOLANTHRENE, Method: STANDARD PLATE): active; positive
mutagenic call (Test System: AMES SALMONELLA TYPHIMURIUM, Strain/Indicator: TA98, Metabolic Activation: RAT, LIVER, S-9, AROCLOR 1254 (10%), Method: PREINCUBATION): active; positive
mutagenic call (Test System: AMES SALMONELLA TYPHIMURIUM, Strain/Indicator: TA98, Metabolic Activation: RAT, LIVER, S-9, AROCLOR 1254, Method: PREINCUBATION): active; positive
mutagenic call (Test System: AMES SALMONELLA TYPHIMURIUM, Strain/Indicator: TA98, Metabolic Activation: RAT, LIVER, S-9, KC500 OR PHENOBARBITAL, Method: LIQUID SUSPENSION): active; positive
mutagenic call (Test System: AMES SALMONELLA TYPHIMURIUM, Strain/Indicator: TA100, Metabolic Activation: HAMSTER, LIVER, S-9, AROCLOR 1254 (10%), Method: PREINCUBATION): active; positive
mutagenic call (Test System: AMES SALMONELLA TYPHIMURIUM, Strain/Indicator: TA100, Metabolic Activation: HAMSTER, LIVER, S-9, AROCLOR 1254, Method: PREINCUBATION): active; positive
mutagenic call (Test System: AMES SALMONELLA TYPHIMURIUM, Strain/Indicator: TA100, Metabolic Activation: NONE, Method: PREINCUBATION): active; positive
mutagenic call (Test System: AMES SALMONELLA TYPHIMURIUM, Strain/Indicator: TA100, Metabolic Activation: RAT, LIVER, S-9, AROCLOR 1254 (10%), Method: PREINCUBATION): active; positive
mutagenic call (Test System: AMES SALMONELLA TYPHIMURIUM, Strain/Indicator: TA100, Metabolic Activation: RAT, LIVER, S-9, AROCLOR 1254, Method: PREINCUBATION): active; positive
mutagenic call (Test System: AMES SALMONELLA TYPHIMURIUM, Strain/Indicator: TA100, Metabolic Activation: RAT, LIVER, S-9, KC500 OR PHENOBARBITAL, Method: LIQUID SUSPENSION): active; positive
mutagenic call (Test System: AMES SALMONELLA TYPHIMURIUM, Strain/Indicator: TA102, Metabolic Activation: NONE, Method: STANDARD PLATE): active; positive
mutagenic call (Test System: AMES SALMONELLA TYPHIMURIUM, Strain/Indicator: TA102, Metabolic Activation: RAT LIVER S-9, AROCLOR 1254, Method: STANDARD PLATE): active; positive
mutagenic call (Test System: AMES SALMONELLA TYPHIMURIUM, Strain/Indicator: TA1535, Metabolic Activation: HAMSTER, LIVER, S-9, AROCLOR 1254 (10%), Method: PREINCUBATION): active; positive
mutagenic call (Test System: AMES SALMONELLA TYPHIMURIUM, Strain/Indicator: TA1535, Metabolic Activation: HAMSTER, LIVER, S-9, AROCLOR 1254, Method: PREINCUBATION): active; positive
mutagenic call (Test System: AMES SALMONELLA TYPHIMURIUM, Strain/Indicator: TA1535, Metabolic Activation: NONE, Method: PREINCUBATION): inactive; negative
mutagenic call (Test System: AMES SALMONELLA TYPHIMURIUM, Strain/Indicator: TA1535, Metabolic Activation: RAT, LIVER, S-9, AROCLOR 1254 (10%), Method: PREINCUBATION): active; positive
mutagenic call (Test System: AMES SALMONELLA TYPHIMURIUM, Strain/Indicator: TA1535, Metabolic Activation: RAT, LIVER, S-9, AROCLOR 1254, Method: PREINCUBATION): active; positive
mutagenic call (Test System: AMES SALMONELLA TYPHIMURIUM, Strain/Indicator: TA1537, Metabolic Activation: RAT, LIVER, S-9, AROCLOR 1254, Method: PREINCUBATION): inactive; negative
mutagenic call (Test System: E. COLI, Strain/Indicator: EE97, Metabolic Activation: NONE, Method: FLUCTUATION TEST): active; positive
mutagenic call (Test System: E. COLI, Strain/Indicator: WP2, Metabolic Activation: NONE, Method: FLUCTUATION TEST): active; positive
mutagenic call (Test System: E. COLI, Strain/Indicator: WP2, Metabolic Activation: NONE, Method: SPOT): active; positive
mutagenic call (Test System: E. COLI, Strain/Indicator: WP2, Metabolic Activation: NONE, Method: STANDARD PLATE): active; positive
mutagenic call (Test System: E. COLI, Strain/Indicator: WP2 UVRA, Metabolic Activation: NONE, Method: FLUCTUATION): active; positive
mutagenic call (Test System: E. COLI, Strain/Indicator: WP2 UVRA, Metabolic Activation: NONE, Method: SPOT): active; positive
mutagenic call (Test System: E. COLI, Strain/Indicator: WP2 UVRA, Metabolic Activation: NONE, Method: STANDARD PLATE): active; positive
mutagenic call (Test System: MOUSE LYMPHOMA, Strain/Indicator: L5178Y (TK+/TK-), Metabolic Activation: NONE, Method: SUSPENSION/PLATE): active; positive

Fc1cc2cccnc2c2ccccc12
mutagenic call (Test System: AMES SALMONELLA TYPHIMURIUM, Strain/Indicator: TA100, Metabolic Activation: RAT, LIVER, S-9, PHENOBARBITAL AND 5,6-BENZOFLAVONE, Method: PREINCUBATION): active; positive

[O-][n+]1cccc2c1C=C[C@H]1O[C@@H]21
mutagenic call (Test System: AMES SALMONELLA TYPHIMURIUM, Strain/Indicator: TA100, Metabolic Activation: NONE, Method: STANDARD PLATE): inactive; negative
mutagenic call (Test System: AMES SALMONELLA TYPHIMURIUM, Strain/Indicator: TA100, Metabolic Activation: RAT, LIVER, S-9, AROCLOR 1254 (10% OR 20%), Method: STANDARD PLATE): inactive; negative

CS(=O)(=O)Nc1ccc(Nc2c3ccccc3nc3cc(N=[N+]=[N-])ccc23)cc1
mutagenic call [2]: active; positive

C[n+]1c2cc(N)ccc2cc2ccc(N)cc21 (tested in a mixture with another compound)
mutagenic call [1]: inactive; negative
mutagenic call (Test System: AMES SALMONELLA TYPHIMURIUM, Strain/Indicator: TA98, Metabolic Activation: RAT, LIVER, S-9, AROCLOR 1254, Method: STANDARD PLATE): active; positive
mutagenic call [2]: inactive; negative
mutagenic call (Test System: AMES SALMONELLA TYPHIMURIUM, Strain/Indicator: TA1537, Metabolic Activation: RAT, LIVER, S-9, AROCLOR 1254, Method: STANDARD PLATE): active; positive
mutagenic call (Test System: AMES SALMONELLA TYPHIMURIUM, Strain/Indicator: TA1538, Metabolic Activation: NONE, Method: STANDARD PLATE): inactive; negative
mutagenic call (Test System: AMES SALMONELLA TYPHIMURIUM, Strain/Indicator: TA1538, Metabolic Activation: RAT, LIVER, S-9, AROCLOR 1254, Method: STANDARD PLATE): active; positive
mutagenic call (Test System: CHINESE HAMSTER OVARY, Strain/Indicator: CHO-K1-BH4 (HGPRT), Metabolic Activation: RAT, LIVER, S-9, AROCLOR, Method: SUSPENSION/PLATE): active; positive

ClC1(Cl)[C@H](c2ccccc2)[C@@H]1c1ccccc1
mutagenic call (Test System: CHINESE HAMSTER V-79, Strain/Indicator: V-79 (HPRT)/6-THIOGUANINE, Metabolic Activation: NONE): inactive; negative
